Calls of active or inactive are those of the source. No cut-off for these calls is given here.
Assays:
[1] = tested on: L5178Y; assay: Tested in vivo for antileukemic activity in the asparagine dependent L5178Y lymphatic leukemia cells in mice up to intraperitoneal doses 100 mg/kg; NA = no antitumor activity; assay type: functional, organism-based; parameters: dose 100 mg/kg; conditions: Mus musculus
[2] = tested on: L5178Y; assay: Tested in vivo for antileukemic activity in the asparagine dependent L5178Y lymphatic leukemia cells in mice up to intraperitoneal doses 40 mg/kg; NA = no antitumor activity; assay type: functional, organism-based; parameters: dose 40 mg/kg; conditions: Mus musculus

## NC(=O)C(F)C(N)C(=O)O (configuration not stated)
[1]
  Activity: inactive

## NC(C(=O)O)C(F)C(=O)O (configuration not stated)
[2]
  Activity: inactive

Reference: ChEMBL document CHEMBL1121530, “Potential carcinostatics. 4. Synthesis and biological properties of erythro- and threo-beta-fluoroaspartic acid and erythro-beta-fluoroasparagine” (J Med Chem, 1980)
